Columns and labels:
[1] = tested on: IL-4 stimulated CD23 upregulation in human Ramos B cells (JAK-1/JAK-3, Stat-6); experiment: Assay for Ramos B-Cell Line Stimulated with IL-4 (CD23 upregulation, FACS); assay type: cell-based; conditions: Table III Example 3
Outline: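 Flow cytometry of CD23 staining after 20-24 h IL-4 stimulation (50 units/mL final) of human Ramos B cells in RPMI with 5% serum. Cells, 5×10^4 per point, received compound or DMSO vehicle for 1 h at 37° C prior to stimulation.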

[2] = tested on: primary human T-cells (IL-2 induced proliferation, JAK-1/JAK-3, Stat-5); experiment: Primary Human T-Cell Proliferation Assay Stimulated with IL-2 (CellTiter-Glo); assay type: cell-based; conditions: Table III Example 4
Outline: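 Read-out is intracellular ATP luminescence (CellTiter-Glo) after 72 h at 37 °C of IL-2-driven growth. Cells, pre-stimulated via TCR and CD28 then washed free of IL-2, were resuspended in Yssel's medium, given 80 U/mL IL-2 in the cell suspension plus duplicate compound; unstimulated wells lacked IL-2.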

[3] = tested on: IFNγ induced ICAM-1 (CD54) up-regulation in A549 lung epithelial cells (JAK/Stat pathway); experiment: A549 Epithelial Line Stimulated with IFNγ (ICAM-1 surface expression, flow cytometry); assay type: cell-based, human; conditions: Table III Example 5
Excerpt: The activity of the compounds of the invention may additionally be characterized by assaying the effect of the 2,4-pyrimidinediamine compounds described herein on A549 lung epithelial cells and U937 cells. A549 lung epithelial cells and U937 cells up-regulate ICAM-1 (CD54) surface expression in response to a variety of different stimuli. Therefore, using ICAM-1 expression as readout, test compound effects on different signaling pathways can be assessed in the same cell type. Stimulation with IL-1β through the IL-1β receptor activates the TRAF6/NFκB pathway resulting in up-regulation of ICAM-1. IFNγ induces ICAM-1 up-regulation through activation of the JAK1/JAK2 pathway. The up-regulation of ICAM-1 can be quantified by flow cytometry across a compound dose curve and EC50 values are calculated. Exemplary assays of this type are described in greater detail in Examples 5 and 6.
A549 lung epithelial cells up-regulate ICAM-1 (CD54) surface expression in response to a variety of different stimuli. Therefore, using ICAM-1 expression as readout, compound effects on different signaling pathways can be assessed in the same cell type. IFNγ up-regulates ICAM-1 through activation of the JAK/Stat pathway. In this example, the up-regulation of ICAM-1 by IFNγ was assessed.
The A549 lung epithelial carcinoma cell line originated from the American Type Culture Collection. Routine culturing was with F12K media (Mediatech Inc., Lenexa, Kans., Cat. No. 10-025-CV) with 10% fetal bovine serum, 100 I.U. penicillin and […] streptomycin (complete F12k media). Cells were incubated in a humidified atmosphere of 5% CO2 at 37° C. Prior to use in the assay, A549 cells were washed with PBS and trypsinized (Mediatech Inc., Cat. No. 25-052-CI) to lift the cells. The trypsin cell suspension was neutralized with complete F12K media and centrifuged to pellet the cells. The cell pellet was resuspended in complete F12K media at a concentration of 2.0×10^5/mL. Cells were seeded at 20,000 per well, 100 μL total volume, in a flat bottom tissue culture plate and allowed to adhere overnight.
On day two, A549 cells were pre-incubated with a 2,4-pyrimidinediamine test compound or DMSO (control) (Sigma-Aldrich, St. Louis, Mo., Catalog No. D2650) for 1 hour. The cells were then stimulated with IFNγ (75 ng/mL) (Peprotech Inc., Rocky Hill, N.J., Cat. No. 300-02) and allowed to incubate for 24 hours. The final test compound dose range was 30 μM to 14 nM in 200 μL F12K media containing 5% FBS, 0.3% DMSO.
On day three, the cell media was removed and the cells were washed with 200 μL PBS (phosphate buffered saline). Each well was trypsinized to dissociate the cells, then neutralized by addition of 200 μL complete F12K media. Cells were pelleted and stained with an APC conjugated mouse anti-human ICAM-1 (CD54) (BD Pharmingen, San Diego, Calif., Catalog #559771) antibody for 20 minutes at 4° C. Cells were washed with ice cold FACS buffer (PBS+2% FBS) and surface ICAM-1 expression was analyzed by flow cytometry. Detection was performed using a BD LSR I System Flow Cytometer, purchased from BD Biosciences of San Jose, Calif. Events were gated for live scatter and the geometric mean was calculated (Becton-Dickinson CellQuest software version 3.3, Franklin Lakes, N.J.). Geometric means were plotted against the compound concentration to generate a dose response curve.

Row | SMILES | IC50 [1] [nM] | IC50 [2] [nM] | IC50 [3] [µM]
1 | CCCN(Cc1ccc(Nc2nc(Nc3ccc(S(N)(=O)=O)cc3)ncc2F)cc1)S(=O)(=O)CC [Compound I-17, N2-(4-aminosulfonyl)phenyl-N4-[4-(N-ethylsulfonyl-N-propylamino)methyl]phenyl-5-fluoro-2,4-pyrimidinediamine] | 164 | 1070 | 8.24
2 | CC(C)S(=O)(=O)NCc1ccc(Nc2nc(Nc3ccc(S(N)(=O)=O)cc3)ncc2F)cc1 [Compound I-65, N2-(4-aminosulfonyl)phenyl-5-fluoro-N4-(4-isopropylsulfonylaminomethyl)phenyl-2,4-pyrimidinediamine] | 211 | 634 | 10.4

— US9481654B2, “Compositions and methods for inhibition of the JAK pathway” (Rigel Pharmaceuticals, Inc., priority 2006, dated 2016)
